Like-named read-outs stand apart in the source and are kept apart here.
Experiments:
[1] = Pharmacokinetics of single intraperitoneal injection in mice (LC-MS/MS, plasma and brain tissue); assay type: in vivo, male C57BL/6J mice; conditions: i.p. 30 mg/kg; for MRT last: read-out: MRT(0-t); for MRT inf: read-out: MRT(0-∞)
Method: LC-MS/MS method was used to measure the concentration of LK-2 in plasma and brain tissue. LK-2 was dissolved in 0.9% saline to a concentration of 1 mg/ml. Blood samples were collected at 5 min, 15 min, 30 min, 1.0 h, 2.0 h, and 4.0 h time points into EDTA-coated tubes, then centrifuged at 2,000 g for 15 min to generate plasma samples. Brain tissue samples were collected after perfusion with saline through the left ventricle, and the brain tissue were diluted and homogenized with 5 volumes (w:v) of 0.9% NaCl. LC-MS/MS method for quantification of LK-2 in plasma and brain tissue samples was developed using LC-MS/MS-T_API4000 instrument. The general sample processing procedure is as follows. • 1) 30 μl plasma samples were divided, standard samples were calibrated with quality control, and single blank and double blank samples were added into 1.5 ml tubes, respectively. 40 μl brain tissue homogenate were added to each well of a 96-well plate, respectively, and standard samples were calibrated with quality control, single blank and double blank samples were aliquoted. • 2) Each sample (excluding double blanks) was mixed with 150 μl (plasma samples) or 200 μl (brain tissue homogenate) of internal standard solution [a 6-in-1 internal standard solution (100 ng/ml each of labetalol, tolbutamide, verapamil, dexamethasone, glipizide, and celecoxib dissolved in methanol) and 40 mM dibutyl acetic acid] to terminate the reaction (double blank samples were terminated with 40 mM dibutyl acetic acid in methanol). The mixture was then thoroughly vortexed for at least 15 s and centrifuged at 12000 g (plasma samples) or 3220 g (brain homogenate) at 4° C. for 15 minutes. • 3) 65 μl of the supernatant was evenly transferred into a 96-well plate and centrifuge at 3220 g, 4° C. for 5 minutes. All procedures were performed on wet ice. All the supernatant was directly injected for LC-MS/MS analysis. The chromatographic column was ACQUITY UPLC BEHC18 with 2.1×100 mm, 1.7 μm. The column temperature was at 40° C. and the flow rate was 0.4 mL/min. The mobile phase A was 0.001% NH3·H2O, 0.18 mM dibutylamine acetate aqueous solution, and mobile phase B was 10 mM N,O-dimethylhydroxylamine and 3 mM NH4OAc solution, acetonitrile/aqueous solution (v:v, 50:50). Standard curves were prepared by spiking compounds into control plasma and brain to determine drug concentrations. Pharmacokinetic parameters and average concentrations at each time point were calculated using DAS 2.0 software through non-compartmental analysis (NCA), as shown in Table 1.

[2] = system: MCAO model; assay: MCAO cerebral ischemia model, rotarod motor function test; assay type: in vivo, mice; conditions: 30 mg/kg, seven days after brain injury
Method: Figure a illustrates the experimental process, where drug intervention (using a concentration of 30 mg/kg of LK-2) was conducted 30 minutes after modeling, and the first brain function test (rotarod test) was performed 24 hours after modeling. The second brain function test was conducted 7 days later, with 5 training tests followed by 1 formal test in each rotarod test. Figure b illustrates the time taken for mice to fall off the rotarod during the 5 training tests, where longer time indicates better motor function. […] Figure c illustrates the analysis results of motor ability in the formal test conducted 24 hours and 7 days after modeling for each group of mice. • 3.4 The animal model of cerebral ischemic stroke, known as the middle cerebral artery occlusion (MCAO) model, is a classic model used to simulate individual patients with ischemic stroke, and evaluate the size of cerebral infarction and motor function (evaluate through the rotarod test, including assessment of motor learning and coordination, the experimental design process is illustrated in FIG. 8a) in model animals after drug intervention. The specific steps are as follows: a transient focal ischemic model was formed by occluding the middle cerebral artery for 30 minutes in wild-type or ASIC1a gene knockout mice. […] In this test, mice were placed on the rotating rod and the time to fall was recorded. […]

[3] = male, C57BL/6J, mouse, ip, Brain tissue
[4] = male, C57BL/6J, mouse, ip, Plasma

Compound: O=C(O)C1CN(C(c2ccccc2)P(=O)(O)O)CCN1 (stereo not drawn) [LK-2]
- CL ([1]; Brain tissue): 634.03 ± 53.28 mL/min/kg
- V ([1]; Brain tissue): 124.755 ± 15.127 L/kg
- CL ([1]; Plasma): 7.13 ± 0.317 mL/min/kg
- V ([1]; Plasma): 0.356 ± 0.021 L/kg
- Kp ([1]; male, C57BL/6J, mouse, brain/plasma, ip, read-out: Brain/plasma AUC ratio): 0.0127 ± 0.0006
- AUC(0-inf) [1, 3]: 793 ± 68 ng·h/mL
- AUC(0-t) [1, 3]: 523 ± 27.9 ng·h/mL
- Cmax [1, 3]: 236 ± 31.9 ng/mL
- Tmax [1, 3]: 30 min
- half-life [1, 3]: 138 ± 26.5 min
- MRT last [1, 3]: 106 ± 4.68 min
- MRT inf [1, 3]: 218 ± 36.7 min
- AUC(0-inf) [1, 4]: 70300 ± 3130 ng·h/mL
- AUC(0-t) [1, 4]: 69800 ± 3120 ng·h/mL
- Cmax [1, 4]: 92700 ± 8310 ng/mL
- Tmax [1, 4]: 30 min
- half-life [1, 4]: 34.6 ± 0.9 min
- MRT last [1, 4]: 41.6 ± 1.14 min
- MRT inf [1, 4]: 43.3 ± 1.08 min
- motor learning ability ([2]; rotarod training tests): significant improvement
- overall improvement in motor function ([2]; rotarod): 51.6%
